These results are taken from US11359180B2, “Method for producing myocardial cells using synthetic peptide” (Toagosei Co., Ltd., priority 2015, dated 2022).

In experiment [1] the test system is iPS cells of human origin (clone 201B7). The experiment can be described thus: Expression of myocardial cell marker genes by fluorescent cytoimmunostaining. It is filed as cell-based. Conditions: sample 1 addition section, 16th day after start of main culture. As to the method:
To check the state of expression of myocardial cell marker genes, cytoimmunostaining (fluorescent immunostaining) of proteins that are the gene products of myocardial marker genes was carried out on the cells in each of the test sections at the 16th day after the start of main culture. The expression of the following as myocardial marker genes was checked: myosin heavy chain (MHC), cardiac Troponin T (cTnT), tropomyosin (TM), and connexin 43 (Cx43).
First, the cells in each test section were subjected to a fixing treatment, a permeabilization treatment, and a blocking treatment. This fixing treatment, permeabilization treatment, and blocking treatment were carried out using a commercial kit (Image-iT Fixation/Permeabilization Kit, Life Technologies Corporation) in accordance with the manual provided with the kit.
Specifically, the culture medium was first removed from the culture vessel (12-well plate) for the cells in each test section on the 16th day after the start of the main culture (16th day after the addition of the myocardial cell differentiation-inducing synthetic peptide). The fixing treatment was performed by adding the fixative solution (Fixative Solution, contained 4 volume % formaldehyde in PBS (pH=7.3)) from the kit at 0.4 mL/well and holding at quiescence for 15 minutes at room temperature. This was followed by washing 3 times using the wash buffer (Wash Buffer, PBS, pH=7.4) from the kit at 0.5 mL/well.
A permeabilization treatment was then performed by adding the permeabilization solution (Permeabilization solution, contained 0.5 volume % Triton (registered trademark) X-100) from the kit at 0.5 mL/well and holding at quiescence for 15 minutes at room temperature. This was followed by washing three times with the wash buffer ([…]) from the kit.
After the cells in each well had been washed with PBS-T (PBS containing 0.25 volume % Triton (registered trademark) X-100), a blocking treatment was performed by adding the blocking solution (Blocking Solution, contained 3 weight/volume % (w/v %) BSA fraction V in DPBS (Dulbecco's PBS) (pH=7.4)) from the kit to each well and standing at quiescence overnight (about 18 hours) at 4° C.
After this blocking treatment, the primary antibody dilutions were added to each well followed by holding at quiescence for 2 hours at room temperature; the primary antibody dilutions were prepared by the dilution of the specified primary antibodies to a suitable antibody concentration using the blocking solution used in the blocking treatment.
The following primary antibodies were used as these primary antibodies: anti-myosin heavy chain antibody, anti-cardiac Troponin T antibody, anti-tropomyosin antibody, and anti-connexin 43 antibody. […]

For experiment [2] the test system is unchanged. The experiment is described as follows: Induction of myocardial cell differentiation: microscopic observation of beating cells. It is filed as cell-based. An excerpt:
Pluripotent stem cells were induced to myocardial cells (production of myocardial cells) using the myocardial cell differentiation-inducing synthetic peptide obtained in Example 1 (sample 1). Specifically, pluripotent stem cells were induced to myocardial cells (production of myocardial cells) by using the myocardial cell differentiation-inducing synthetic peptide obtained in Example 1 (sample 1) in place of activin A in the method for inducing the differentiation of pluripotent stem cells into hepatocytes. The method described in Non Patent Literature 3 was adopted for the method for inducing the differentiation of pluripotent stem cells into hepatocytes. iPS cells of human origin (clone designation: 201B7, source: Takahashi K et al., Cell, 131, 861-872 (2007)) were used for the test cells. These iPS cells were supplied by the Center for iPS Cell Research and Application of Kyoto University.
The iPS cells, which were the test cells, were seeded to 12-well plates coated with an extracellular matrix (Geltrex (registered trademark) in the present case). Using mTeSR1 (STEMCELL Technologies Inc.) for the culture medium, they were cultured (precultured) in a CO2 incubator under conditions of 37° C. and 5% CO2 until an appropriate cell density (here, a confluence of about at least 60% and not more than 70%) had been reached. Medium exchange was performed each day during this preculture.
The sample 1 obtained in Example 1 was then added to the culture medium and cultivation was carried out (main culture). Thus, the pluripotent stem cells were induced to myocardial cells (production of myocardial cells) by using the myocardial cell differentiation-inducing synthetic peptide obtained in Example 1 (sample 1) in place of the activin A in the method for inducing the differentiation of pluripotent stem cells into hepatocytes that is given in Non Patent Literature 3. The following were set up in the present example: a test section (referred to below as the activin A addition section) that used the same method as the method given in Non Patent Literature 3 for inducing the differentiation of pluripotent stem cells to hepatocytes using activin A; a test section (referred to below as the sample 1 addition section) that used the myocardial cell differentiation-inducing synthetic peptide of sample 1 in place of the activin A in the activin A addition section; and a control section to which neither the activin A nor the myocardial cell differentiation-inducing synthetic peptide was added. The specifics are given below. The culture conditions in this main culture are given schematically in FIG. 1.
First, the culture medium was exchanged to base medium 1 in the activin A addition section, the sample 1 addition section, and the control section. In the activin A addition section, activin A (R&D Systems, Inc., Cat. No. 338-AC-D50) was added to the culture vessel (i.e., to the base medium 1) in a quantity that provided an activin A concentration in the culture medium of 100 ng/mL. […]
After this cultivation for 2 days (i.e., the 2nd day after the start of the main culture), the culture medium was exchanged to base medium 2 in the activin A addition section, the sample 1 addition section, and the control section. In the activin A addition section, activin A was added to the culture vessel (i.e., to the base medium 2) in a quantity that provided an activin A concentration in the culture medium of 100 ng/mL. […]

Turning to LLLLLLVGLTAPAGKKRTLRKNDRKKR [sample 1], in experiment [1] (FIG. 2), the “expression of cardiac Troponin T in comparison to control section” value is “substantially increased” and the “expression of myosin heavy chain in comparison to control section” value is listed as “substantially increased”. Also, in experiment [1] (FIG. 3), the “expression of connexin 43 in comparison to control section” value is “substantially increased” and the “expression of tropomyosin in comparison to control section” value is listed as “substantially increased”. In addition, the “number of beating cells present (abundance ratio) compared to 9th day” value in experiment [2] (sample 1 addition section, 8 μM, 10th day after start of main culture) is reported as “had increased”. Besides, in experiment [2] (sample 1 addition section, 8 μM, 17th day after start of main culture, 12-well plate), the “number of beating cells” value is on record as “approximately 38 beating cells/well”. Moreover, the “number of beating cells (abundance ratio), average” value in experiment [2] (sample 1 addition section, repeated tests, 17th day after start of main culture) was “about 40 per 1 well of the 12-well plate”. The “probability that at least 1 beating cell was present per 1 well” value in experiment [2] (sample 1 addition section, tests independently repeated a plurality of times, 12-well plate) is given as “at least 95%”.

B1: activin A: peptide having approximately 140 amino acid residues (R&D Systems, Cat. No. 338-AC-D50), used in the hepatocyte differentiation-inducing method (protein, UniProt P08476 311-426, looked up)
Inhibin beta A chain: GLECDGKVNICCKKQFFVSFKDIGWNDWIIAPSGYHANYCEGECPSHIAGTSGSSLSFHSTVINHYRMRGHSPFANLKSCCVPTKLRPMSMLYYDDGQNIIKKDIQNMIVEECGCS
modifications: Inhibin beta A chain
notes: peptide having approximately 140 amino acid residues (R&D Systems, Cat. No. 338-AC-D50), used in the hepatocyte differentiation-inducing method
For B1, the “presence of beating cells” value in experiment [2] (activin A addition section, 100 ng/mL, daily observation during main culture) is “could not be confirmed”.
